Assays:
Assay type in all cases: functional
[1] = tested on: A549; assay: Growth inhibition of human A549 cells after 48 hrs by SRB staining method; conditions: A549, 48 h
[2] = tested on: MDA-MB-435; assay: Growth inhibition of human MDA-MB-435 cells after 48 hrs by SRB staining method; conditions: MDA-MB-435, 48 h
[3] = tested on: ACHN; assay: Growth inhibition of human ACHN cells after 48 hrs by SRB staining method
[4] = tested on: 786-0; assay: Growth inhibition of human 786-0 cells after 48 hrs by SRB staining method; conditions: 786-0, 48 h
[5] = tested on: T47D; assay: Growth inhibition of human T47D cells after 48 hrs by SRB staining method
[6] = tested on: SF-268; assay: Growth inhibition of human SF268 cells after 48 hrs by SRB staining method; conditions: SF-268, 48 h
[7] = tested on: DU-145; assay: Growth inhibition of human DU145 cells after 48 hrs by SRB staining method; conditions: DU-145, 48 h
[8] = tested on: M14; assay: Growth inhibition of human M14 cells after 48 hrs by SRB staining method; conditions: M14, 48 h
[9] = tested on: NCI-H460; assay: Growth inhibition of human NCI-H460 cells after 48 hrs by SRB staining method; conditions: NCI-H460, 48 h
[10] = tested on: IGROV-1; assay: Growth inhibition of human IGROV1 cells after 48 hrs by SRB staining method; conditions: IGROV-1, 48 h
[11] = tested on: TK-10; assay: Growth inhibition of human TK10 cells after 48 hrs by SRB staining method; conditions: TK-10, 48 h
[12] = tested on: RXF 393; assay: Growth inhibition of human RXF393 cells after 48 hrs by SRB staining method; conditions: RXF 393, 48 h
[13] = tested on: SK-MEL-28; assay: Growth inhibition of human SK-MEL-28 cells after 48 hrs by SRB staining method; conditions: SK-MEL-28, 48 h
[14] = tested on: HCT-116; assay: Growth inhibition of human HCT116 cells after 48 hrs by SRB staining method; conditions: HCT-116, 48 h
[15] = tested on: SF-295; assay: Growth inhibition of human SF295 cells after 48 hrs by SRB staining method; conditions: SF-295, 48 h
[16] = tested on: NCI/ADR-RES; assay: Growth inhibition of human NCI/ADR-RES cells after 48 hrs by SRB staining method
[17] = tested on: SNB-19; assay: Growth inhibition of human SNB19 cells after 48 hrs by SRB staining method; conditions: SNB-19, 48 h
[18] = tested on: EKVX; assay: Growth inhibition of human EKVX cells after 48 hrs by SRB staining method
[19] = tested on: NCI-H23; assay: Growth inhibition of human NCI-H23 cells after 48 hrs by SRB staining method; conditions: NCI-H23, 48 h
[20] = tested on: MDA-MB-231; assay: Growth inhibition of human MDA-MB-231 cells after 48 hrs by SRB staining method; conditions: MDA-MB-231, 48 h
[21] = tested on: U-251; assay: Growth inhibition of human U251 cells after 48 hrs by SRB staining method; conditions: U-251, 48 h
[22] = tested on: KM12; assay: Growth inhibition of human KM12 cells after 48 hrs by SRB staining method; conditions: KM12, 48 h
[23] = tested on: UACC-257; assay: Growth inhibition of human UACC257 cells after 48 hrs by SRB staining method; conditions: UACC-257, 48 h
[24] = tested on: PC-3; assay: Growth inhibition of human PC3 cells after 48 hrs by SRB staining method; conditions: PC-3, 48 h
[25] = tested on: MCF7; assay: Growth inhibition of human MCF7 cells after 48 hrs by SRB staining method; conditions: MCF7, 48 h
[26] = tested on: CAKI-1; assay: Growth inhibition of human CAKI1 cells after 48 hrs by SRB staining method; conditions: CAKI-1, 48 h
[27] = tested on: UACC-62; assay: Growth inhibition of human UACC62 cells after 48 hrs by SRB staining method; conditions: UACC-62, 48 h
[28] = tested on: OVCAR-8; assay: Growth inhibition of human OVCAR8 cells after 48 hrs by SRB staining method; conditions: OVCAR-8, 48 h
[29] = tested on: SK-MEL-5; assay: Growth inhibition of human SK-MEL-5 cells after 48 hrs by SRB staining method; conditions: SK-MEL-5, 48 h
[30] = tested on: SK-OV-3; assay: Growth inhibition of human SKOV3 cells after 48 hrs by SRB staining method; conditions: SK-OV-3, 48 h
[31] = read-out: pLC50 (the source's name) (converted)

CCOC(=O)CCC(NC(=O)c1ccc(Nc2nc3cc(N)cc(N)c3nc2-c2ccccc2)cc1)C(=O)OCC (centres undefined)
GI50 [1]: 20 µM | CC50 [1, 31]: > 100 µM | TGI ([1]; read-out: pTGI (converted)): > 100 µM | GI50 [2]: 12 µM | CC50 [2, 31]: > 100 µM | TGI ([2]; read-out: pTGI (converted)): 36.3 µM | GI50 [3]: 12.9 µM | CC50 [3, 31]: > 100 µM | TGI ([3]; read-out: pTGI (converted)): 46.8 µM | GI50 [4]: 17.8 µM | CC50 [4, 31]: 77.6 µM | TGI ([4]; read-out: pTGI (converted)): 37.2 µM | GI50 [5]: 1.66 µM | CC50 [5, 31]: > 100 µM | TGI ([5]; read-out: pTGI (converted)): 4.9 µM | GI50 [6]: 23.4 µM | CC50 [6, 31]: > 100 µM | TGI ([6]; read-out: pTGI (converted)): > 100 µM | GI50 [7]: 44.7 µM | CC50 [7, 31]: > 100 µM | TGI ([7]; read-out: pTGI (converted)): > 100 µM | GI50 [8]: 2.51 µM | LC50 [8]: 75.9 µM | TGI ([8]; read-out: pTGI (converted)): 5.89 µM | GI50 [9]: 8.51 µM | LC50 (concentration killing 50% of cells) [9]: > 100 µM | TGI ([9]; read-out: pTGI (converted)): 47.9 µM | GI50 [10]: 6.31 µM | LC50 [10]: > 100 µM | TGI ([10]; read-out: pTGI (converted)): 89.1 µM | GI50 [11]: 33.1 µM | CC50 [11, 31]: > 100 µM | TGI ([11]; read-out: pTGI (converted)): 75.9 µM | GI50 [12]: 24.5 µM | TGI ([12]; read-out: pTGI (converted)): 85.1 µM | GI50 [13]: 1.51 µM | CC50 [13, 31]: 5.89 µM | TGI ([13]; read-out: pTGI (converted)): 3.02 µM | GI50 [14]: 15.1 µM | LC50 [14]: > 100 µM | TGI ([14]; read-out: pTGI (converted)): 51.3 µM | GI50 [15]: 17.8 µM | LC50 [15]: > 100 µM | TGI ([15]; read-out: pTGI (converted)): 43.7 µM | GI50 [16]: 19.5 µM | CC50 [16, 31]: > 100 µM | TGI ([16]; read-out: pTGI (converted)): 63.1 µM | GI50 [17]: 21.4 µM | LC50 [17]: > 100 µM | TGI ([17]; read-out: pTGI (converted)): > 100 µM | GI50 [18]: 28.8 µM | CC50 [18, 31]: > 100 µM | TGI ([18]; read-out: pTGI (converted)): > 100 µM | GI50 [19]: 18.6 µM | LC50 [19]: > 100 µM | TGI ([19]; read-out: pTGI (converted)): 55 µM | GI50 [20]: 8.91 µM | CC50 [20, 31]: 81.3 µM | TGI ([20]; read-out: pTGI (converted)): 28.2 µM | GI50 [21]: 20 µM | LC50 (50% lethal concentration) [21]: 95.5 µM | TGI ([21]; read-out: pTGI (converted)): 43.7 µM | GI50 [22]: 28.2 µM | LC50 [22]: > 100 µM | TGI ([22]; read-out: pTGI (converted)): > 100 µM | GI50 [23]: 2 µM | LC50 [23]: > 100 µM | TGI ([23]; read-out: pTGI (converted)): 4.9 µM | GI50 [24]: 21.4 µM | CC50 [24, 31]: > 100 µM | TGI ([24]; read-out: pTGI (converted)): 91.2 µM | GI50 [25]: 29.5 µM | CC50 [25, 31]: > 100 µM | TGI ([25]; read-out: pTGI (converted)): > 100 µM | GI50 [26]: 27.5 µM | CC50 [26, 31]: > 100 µM | TGI ([26]; read-out: pTGI (converted)): > 100 µM | GI50 [27]: 3.55 µM | LC50 [27]: 64.6 µM | TGI ([27]; read-out: pTGI (converted)): 14.5 µM | GI50 [28]: 33.9 µM | CC50 [28, 31]: > 100 µM | TGI ([28]; read-out: pTGI (converted)): > 100 µM | GI50 [29]: 6.61 µM | LC50 [29]: > 100 µM | TGI ([29]; read-out: pTGI (converted)): 31.6 µM | GI50 [30]: 21.9 µM | CC50 [30, 31]: > 100 µM | TGI ([30]; read-out: pTGI (converted)): 47.9 µM

Reference: ChEMBL document CHEMBL1149774, “Synthesis of N-(5,7-diamino-3-phenyl-quinoxalin-2-yl)-3,4,5-substituted anilines and N-[4[(5,7-diamino-3-phenylquinoxalin-2-yl)amino]benzoyl]-l-glutamic acid diethyl ester: evaluation of in vitro anti-cancer and anti-folate activities” (Eur J Med Chem, 2008)
